For 31 compounds, IC50 results are on record in ChEMBL document CHEMBL5726928, “Aryl, heteroaryl, and heterocyclic compounds for treatment of medical disorders” (2019).

The target of the experiment is Complement factor D (Homo sapiens, UniProt P00746). In words: Human Factor D Assay: Human Factor D (purified from human serum, Complement Technology, Inc.) at 80 nM final concentration was incubated with test compound at various concentrations for 5 minutes at room temperature in 50 mM Tris, 1M NaCl, pH 7.5. A synthetic substrate Z-L-Lys-SBzl and DTNB (Ellman's reagent) are added to final concentrations of 100 μM each. […] IC50 values are calculated by nonlinear regression of complement Factor D reaction rates as a function of test compound concentration.
Chain of Complement factor D (P00746 whole entry): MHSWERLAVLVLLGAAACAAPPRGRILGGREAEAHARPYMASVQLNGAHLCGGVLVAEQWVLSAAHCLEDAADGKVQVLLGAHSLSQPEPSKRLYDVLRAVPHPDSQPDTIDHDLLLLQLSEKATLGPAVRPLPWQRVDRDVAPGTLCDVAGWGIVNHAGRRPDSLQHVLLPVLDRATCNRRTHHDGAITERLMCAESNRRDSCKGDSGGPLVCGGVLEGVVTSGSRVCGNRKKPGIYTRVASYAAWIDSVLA

Broadly, the IC50 is the concentration that gives 50% inhibition. Regarding `CC(=O)c1nn(CC(=O)N2C[C@H](F)C[C@H]2C(=O)Nc2cccc(Br)n2)c2ccc(-c3cnc([S+](C)[O-])nc3)cc12` (stereo partly specified), the half-inhibitory concentration (IC50) is below 1000 nM.

Take `CC(=O)c1nn(CC(=O)N2C[C@H](F)C[C@H]2C(=O)Nc2cccc(Br)c2)c2ccc(-c3cnc(C)nc3)cc12`: the IC50 was below 1000 nM.

For the compound `CCOC(=O)Cc1ncc(-c2ccc3c(c2)c(C(C)=O)nn3CC(=O)N2C[C@H](F)C[C@H]2C(=O)Nc2nc(Br)ccc2C)cn1`, the concentration for half-maximal inhibition (IC50) was below 1000 nM.

In the case of `CC(=O)c1nn(CC(=O)N2[C@@H]3C[C@@H]3C[C@H]2C(=O)Nc2nc(Br)ccc2C)c2ccc(-c3cnc(C)nc3)cc12`, the IC50 is below 1000 nM.

Regarding `CC(=O)c1nn(CC(=O)N2C[C@H](F)C[C@H]2C(=O)Nc2ccc(F)c(Br)c2F)c2ccc(-c3cnc(C)nc3)cc12`, the half-inhibitory concentration (IC50) is below 1000 nM.

For the compound `CC(=O)c1nn(CC(=O)N2C[C@H](F)C[C@H]2C(=O)Nc2cccc(OC(F)(F)F)n2)c2ccc(-c3cnc(N)nc3)cc12`, the 50% inhibitory concentration (IC50) was below 1000 nM.

Regarding `CC(=O)c1nn(CC(=O)N2C[C@H](F)C[C@H]2C(=O)N[C@H](C)[C@H]2CC2(Cl)Cl)c2ccc(-c3cnc(C)nc3)cc12`, the IC50 is below 1000 nM.

On to `CC(=O)c1cn(CC(=O)N2C[C@H](F)C[C@H]2C(=O)Nc2cccc(Br)n2)c2ccc(-c3cnc4ccnn4c3)cc12`, for which the IC50 is below 1000 nM.

For the compound `CC(=O)c1nn(CC(=O)N2C[C@H](F)C[C@H]2C(=O)Nc2nn(CC(F)(F)F)cc2C)c2ccc(-c3cnc(C)nc3)cc12`, the half-maximal inhibitory concentration (IC50) was below 1000 nM.

With `COCCNc1ncc(-c2ccc3c(c2)c(C(C)=O)cn3CC(=O)N2C[C@H](F)C[C@H]2C(=O)Nc2cccc(Br)n2)cn1`, the IC50 was below 1000 nM.

Take `COCCNc1ncc(-c2ccc3c(c2)c(C(C)=O)cn3CC(=O)N2[C@@H]3C[C@@H]3C[C@H]2C(=O)Nc2cccc(Br)n2)cn1`: the IC50 is below 1000 nM.

Take `Cc1cc2ncc(-c3ccc4c(c3)c(C(N)=O)nn4CC(=O)N3C[C@H](F)C[C@H]3C(=O)Nc3cccc(OC(F)(F)F)c3F)cn2n1`: the 50% inhibitory concentration (IC50) was below 1000 nM.

With `COc1ccc(Br)nc1NC(=O)[C@@H]1C[C@@H](F)CN1C(=O)Cn1nc(C(C)=O)c2cc(-c3cnc(C)nc3)ccc21`, the concentration for half-maximal inhibition (IC50) is below 1000 nM.

Consider `CC(=O)c1nn(CC(=O)N2[C@H](C(=O)NCc3cccc(Cl)c3)C[C@@]3(C)C[C@@H]23)c2ccc(-c3cnc(C)nc3)cc12`, for which the IC50 was below 1000 nM.

Take `CC(=O)c1nn(CC(=O)N2C[C@H](F)C[C@H]2C(=O)NC[C@@H]2CC2(Cl)Cl)c2ccc(-c3cnc(C)nc3)cc12`: the IC50 is below 1000 nM.

Consider `CC(=O)c1nn(CC(=O)N2[C@H](C(=O)NCC3CC3(Cl)Cl)C[C@@]3(C)C[C@@H]23)c2ccc(-c3cnc(C)nc3)cc12` (stereo partly specified), for which the IC50 was below 1000 nM.

In the case of `CC(=O)c1nn(CC(=O)N2C[C@H](F)C[C@H]2C(=O)Nc2nc(Br)ccc2Cl)c2ccc(-c3cnc(C)nc3)cc12`, the IC50 is below 1000 nM.

Turning to `CC(=O)c1nn(CC(=O)N2C[C@H](F)C[C@H]2C(=O)Nc2cccnn2)c2ccc(-c3cnc4cc(C)nn4c3)cc12`, the IC50 is below 1000 nM.

Take `CC(=O)c1nn(CC(=O)N2[C@@H]3C[C@@H]3C[C@H]2C(=O)NC/C(F)=C(/C)c2ccccc2)c2ccc(-c3cnc(C)nc3)cc12`: the half-inhibitory concentration (IC50) was below 1000 nM.

As for `CC(=O)c1nn(CC(=O)N2C[C@H](F)C[C@H]2C(=O)Nc2cccc(OC(F)(F)F)c2C#N)c2ccc(-c3cnc(C)nc3)cc12`, the IC50 is below 1000 nM.

Consider `CC(=O)c1nn(CC(=O)N2C[C@H](F)C[C@H]2C(=O)N[C@@H]2C[C@H]2c2ccccc2Cl)c2ccc(-c3cnc(C)nc3)cc12`, for which the IC50 is below 1000 nM.

In the case of `CCn1ccc(NC(=O)[C@@H]2C[C@@H](F)CN2C(=O)Cn2nc(C(C)=O)c3cc(-c4cnc(C)nc4)ccc32)n1`, the IC50 was below 1000 nM.

For `CC(=O)c1nn(CC(=O)N2C[C@H](F)C[C@H]2C(=O)Nc2cccc(Br)n2)c2ccc(-c3cnnc(C)c3)cc12`, the IC50 was below 1000 nM.

Consider `CC(=O)c1nn(CC(=O)N2C[C@H](F)C[C@H]2C(=O)NC[C@H]2CC2(Cl)Cl)c2ccc(-c3cnc(C)nc3)cc12`, for which the half-inhibitory concentration (IC50) is below 1000 nM.

Regarding `CC(=O)c1nn(CC(=O)N2C[C@H](F)C[C@H]2C(=O)Nc2ccn(CCC(F)(F)F)n2)c2ccc(-c3cnc(C)nc3)cc12`, the IC50 was below 1000 nM.

Consider `CC(=O)c1nn(CC(=O)N2[C@@H]3C[C@@H]3C[C@H]2C(=O)Nc2cccc(Br)n2)c2ccc(-c3cnc(NC(C)C)nc3)cc12`, for which the IC50 is below 1000 nM.

On to `CC(=O)c1nn(CC(=O)N2C[C@H](F)C[C@H]2C(=O)Nc2cccc(Br)n2)c2ccc(-c3nc4ccccc4[nH]3)cc12`, for which the IC50 was below 1000 nM.

In the case of `CC(=O)c1nn(CC(=O)N2C[C@@](F)(CO)C[C@H]2C(=O)Nc2cccc(Br)n2)c2ccc(-c3cnc(C)nc3)cc12`, the half-inhibitory concentration (IC50) was below 1000 nM.

In the case of `CC(=O)c1nn(CC(=O)N2C[C@H](F)C[C@H]2C(=O)Nc2cccc(C)n2)c2ccc(-c3cnc(C)nc3)cc12`, the half-inhibitory concentration (IC50) is below 1000 nM.

For `CC(=O)c1nn(CC(=O)N2[C@H](C(=O)NCc3cccc(Cl)c3F)C[C@@]3(C)C[C@@H]23)c2ccc(-c3cnc(C)nc3)cc12`, the 50% inhibitory concentration (IC50) is below 1000 nM.

Turning to `CC(=O)c1nn(CC(=O)N2C[C@H](F)C[C@H]2C(=O)N[C@H]2C[C@@H]2c2ccccc2Cl)c2ccc(-c3cnc(C)nc3)cc12`, the half-inhibitory concentration (IC50) was below 1000 nM.
